From publication PMC11837686, “γ-Secretase modulator resistance of an aggressive Alzheimer-causing presenilin mutant can be overcome in the heterozygous patient state by a set of advanced compounds” (Alzheimer's Research & Therapy, 2025)
Values joined by “and” are separate entries in the source; they are usually repeats but may differ in a detail not shown here. Equal values may be shown once. “Also recorded” adds a separate entry of the source. Read-outs that look alike come from different tables or passages of the source. Values belong to the molecule of their own block, whether it stands above or below them.

Legend:
[1] = target: T1, endogenous γ-secretase in HEK293/sw cells (Homo sapiens, UniProt P49768+P49810); assay: Aβ dose–response in HEK293/sw cells, MSD sandwich immunoassay
[2] = test system: γ-secretase in heterozygous (WT/L166P) PS1 L166P KI MEF cells; assay: Aβ species by Tris-Bicine urea SDS-PAGE/immunoblot, heterozygous PS1 L166P KI MEF cells; conditions: for Aβ40 (gel): heterozygous KI MEF (genotype not given), RO5254601 2.5 µM; for Aβ40 (gel) / Short species Aβ37 and Aβ38 (gel): RO-02 and RO7019009 500 nM, BPN-15606 360 nM
[3] = target: T2, γ-secretase in homozygous (L166P/L166P) PS1 L166P KI MEF cells (Mus musculus, UniProt P49769+Q61144, L166P); assay: Aβ species by Tris-Bicine urea SDS-PAGE/immunoblot, homozygous PS1 L166P KI MEF cells
[4] = test system: γ-secretase in heterozygous (WT/L166P) PS1 L166P KI MEF cells; assay: Secreted Aβ species by ELISA (IBL), heterozygous PS1 L166P KI MEF cells; conditions: for Combined pathogenic species (Aβ42 + Aβ43) / Secreted Aβ43: 24 h, RO7019009 500 nM, RO5254601 2.5 µM; for Aβ38 level in treated cells, % of total Aβ: GSM-1 2.5 µM, RO-02 500 nM, one range given for both compounds and both 'other genotypes'
[5] = test system: γ-secretase in heterozygous WT/L166P iPSC-derived cortical neurons; assay: Secreted Aβ species by immunoassays, heterozygous PS1 L166P KI iPSC-derived neurons; conditions: 3 days, RO7019009 500 nM or 2.5 µM, RO5254601 2.5 µM
[6] = target: γ-secretase (Aβ42) in H4/sw cell line (Homo sapiens, UniProt P49768+P49810); assay: Aβ42 AlphaLISA dose–response in H4/sw cells
[7] = target: T3, γ-secretase in WT (WT/WT) MEF cells (Mus musculus, UniProt P49769+Q61144); assay: Aβ species by Tris-Bicine urea SDS-PAGE/immunoblot, WT/WT MEF cells; conditions: RO-02 and RO7019009 500 nM, BPN-15606 360 nM; for Aβ40 (gel): WT MEF (genotype not given), RO5254601 2.5 µM; for Short species Aβ37 and Aβ38 (gel): WT MEF
[8] = target: γ-secretase in homozygous L166P/L166P iPSC-derived cortical neurons (Homo sapiens, UniProt P49768+P49810, L166P); assay: Secreted Aβ species by immunoassays, homozygous PS1 L166P KI iPSC-derived neurons; conditions: 3 days
Notch1 cleavage = Notch1 cleavage reporter assay (NICD release), HEK293-based reporter cell line; conditions: dose–response
[9] = test system: iPSC-derived cortical neurons (total Aβ); assay: Total Aβ by MSD sandwich immunoassay (2D8/4G8) in iPSC-derived neurons; conditions: WT, heterozygous and homozygous neurons, 3 days; RO7019009 500 nM or 2.5 µM, RO5254601 2.5 µM
[10] = target: γ-secretase in WT iPSC-derived cortical neurons (Homo sapiens, UniProt P49768+P49810); assay: Secreted Aβ species by immunoassays, WT iPSC-derived cortical neurons; conditions: 3 days, RO7019009 500 nM or 2.5 µM, RO5254601 2.5 µM
PS1 and PS2 NTF and CTF = assay: Photoaffinity labeling with RO6874585 and competition, HEK293 membrane fractions; assay type: binding, human; conditions: for Competition of RO6874585 crosslinking to presenilin: 100x excess of competitor
Protocol: (§1) Membrane fractions of HEK293 or MEF cells were incubated with RO6874585 in the presence or absence of other GSMs used as competitor compounds as described previously. In brief, after photoactivation, samples were solubilised using SDS-containing buffer and the crosslinked proteins were pulled down with streptavidin-sepharose. Thereafter, samples were analysed by immunoblotting.

[11] = target: T3, γ-secretase in WT (WT/WT) MEF cells; assay: Secreted Aβ species by ELISA (IBL), WT/WT MEF cells; conditions: for Secreted Aβ38: RO7019009 500 nM
[12] = target: T1, endogenous γ-secretase in HEK293/sw cells; design: endogenous γ-secretase in HEK293/sw cells; endogenous in cells; host or cells: HEK293/sw (HEK293 stably expressing APPsw); conditions: read-out: IC50 (Aβ42); cited from earlier work
brain-derived cell lines = test system: brain-derived cell lines; design: method as in PMID 31762188; conditions: read-out: IC50 (Aβ42); cited from earlier work
[13] = target: T2, γ-secretase in homozygous (L166P/L166P) PS1 L166P KI MEF cells; assay: Secreted Aβ species by ELISA (IBL), homozygous PS1 L166P KI MEF cells; conditions: GSM-1 2.5 µM, RO-02 500 nM, one range printed for both compounds, measurable in half of the samples
PS1 L166P = target: T4, PS1 L166P (Mus musculus, UniProt P49769, L166P); assay: Photoaffinity labeling with RO6874585, WT or PS1 L166P KI MEF membrane fractions; assay type: binding
T4 construct: crosslinking efficiencies of PS1 NTF and PS1 CTF in WT or PS1 L166P KI MEF cell membranes; endogenous in cells; host or cells: membrane fractions of PS1 L166P knock-in MEF cells
Protocol: as §1

[14] = read-out: Aβ42 IC50 [nM ± SD], H4/sw cells, over-night incubation, Aβ42-AlphaLisa, 4–7 independent experiments

Structure (SMILES): CC(C)N1CCCC(c2ccc3[nH]c(C(=O)Nc4cccc(F)c4)cc3c2)C1 (stereo not drawn) [RO5218165]
IC50 [6, 14]: 207 ± 32.4 nM
Competition of RO6874585 crosslinking to presenilin (PS1 and PS2 NTF and CTF): differential competition for NTF and CTF binding

Structure (SMILES): C[C@H](NC(=O)Cc1cc(F)cc(F)c1)C(=O)N[C@@H]1C(=O)N(C)c2ccccc2-c2ccccc21 [DBZ, dibenzazepine, reference compound]
IC50 [6, 14]: 0.33 ± 0.01 nM
Notch1 cleavage / NICD release (Notch1 cleavage): reduced the levels of the Notch1 intracellular domain

Structure (SMILES): COc1nc(-c2cc(C)c(N[C@@H](C)c3ccc(F)cc3)nn2)ccc1-n1cnc(C)c1 [BPN-15606, reference compound]
IC50 ([1]; IC50 (Aβ42), 16–18 h, MSD sandwich immunoassay, this study): ~12 nM and 12 nM
Aβ40 (gel) [2]: strong reduction of Aβ40
Aβ43 (gel) ([3]; BPN-15606 500 nM): strong reduction of Aβ43
IC50 [6]: 16.9 ± 8.22 nM
Aβ40 (gel) [7]: strong reduction of Aβ40
Short species Aβ37 and Aβ38 (gel) [7]: increase of both short species, Aβ37 and Aβ38
Secreted Aβ42 ([11]; 24 h, BPN-15606 360 nM): reduced Aβ42 levels
Secreted Aβ38 ([11]; 24 h, BPN-15606 360 nM): increase of Aβ38

Structure (SMILES): CC(C)CCC(c1ccc(Cl)cc1)N1CCC(CC(=O)O)CC1c1ccc(C(F)(F)F)cc1 (stereo not drawn) [GSM-1, reference compound]
Aβ38 level in treated cells, % of total Aβ [4]: 30–60%
Competition of RO6874585 crosslinking to presenilin (PS1 and PS2 NTF and CTF): did not or only weakly compete binding

Structure (SMILES): Cc1nsc(N2CC3CCC(C2)C3Nc2nc3c(-c4ccc(F)c(F)c4F)cccn3n2)n1 (stereo not drawn) [RO7019009]
Aβ40 (gel) [2]: strong reduction of Aβ40
Processivity: ratio of shorter Aβ37/38 combined with Aβ40 to longer Aβ42/43 species ([2]; heterozygous KI MEF, RO7019009 500 nM): increased processivity
Short species Aβ37 and Aβ38 (gel) ([2]; heterozygous KI MEF): increase of both short species, Aβ37 and Aβ38
Aβ38 (gel) ([3]; RO7019009 500 nM): increased generation of Aβ38
Processivity: ratio of shorter Aβ37/38 combined with Aβ40 to longer Aβ42/43 species ([3]; RO7019009 500 nM): increased processivity
Combined pathogenic species (Aβ42 + Aβ43) [4]: effective lowering of the generation of total pathogenic Aβ42/43 species
Secreted Aβ43 [4]: only potently effective compound in lowering Aβ43
Secreted Aβ42 [5]: reduced both Aβ42 and Aβ43
Secreted Aβ43 [5]: reduced both Aβ42 and Aβ43
IC50 [6]: 3.76 ± 0.6 nM
Aβ40 (gel) [7]: strong reduction of Aβ40
Short species Aβ37 and Aβ38 (gel) [7]: increase of both short species, Aβ37 and Aβ38
Effect on Aβ species profile ([8]; RO7019009 500 nM or 2.5 µM): efficiently reduced not only Aβ40 but also Aβ43 and, especially at higher concentrations, Aβ42
Total Aβ levels [9]: without affecting total Aβ levels
Secreted Aβ38 ([11]; 24 h, BPN-15606 360 nM): strongly increased Aβ38
Effect on Aβ species profile [10]: reduced Aβ40 and Aβ42 while increasing both shorter species Aβ37 and Aβ38
Competition of RO6874585 crosslinking to presenilin (PS1 and PS2 NTF and CTF): differential competition for NTF and CTF binding
IC50 [12]: ~14 nM and 14 nM
IC50 (brain-derived cell lines): ≥ 2 nM

Structure (SMILES): COc1cc(Nc2nc(Cc3ccc(Cl)cc3)cc(C(C)(C)O)n2)ccc1-n1cnc(C)c1 [RO-02, reference compound]
Aβ38 level in treated cells, % of total Aβ [13]: 6–8%
Aβ40 (gel) [2]: strong reduction of Aβ40
Short species Aβ37 and Aβ38 (gel) ([2]; heterozygous KI MEF): increase of both short species, Aβ37 and Aβ38
Aβ38 level in treated cells, % of total Aβ [4]: 30–60%
IC50 [6]: 20.5 ± 4.38 nM
Aβ40 (gel) [7]: strong reduction of Aβ40
Short species Aβ37 and Aβ38 (gel) [7]: increase of both short species, Aβ37 and Aβ38
Aβ38 level in treated cells, % of total Aβ ([11]; GSM-1 2.5 µM, RO-02 500 nM, one range given for both compounds and both 'other genotypes'): 30–60%
Competition of RO6874585 crosslinking to presenilin (PS1 and PS2 NTF and CTF): did not or only weakly compete binding
IC50 [12]: ~15 nM and 15 nM

More lines, main results first:

Aβ37 production ([1]; dose–response): increased Aβ37
Aβ38 production ([1]; dose–response): increased the production of Aβ38
Aβ40 production ([1]; dose–response): largely unaffected
Aβ42 (gel) ([3]; RO5254601 2.5 µM): markedly lowering Aβ42
Secreted Aβ42 [5]: reduced only Aβ42
Secreted Aβ43 [5]: had no effect on Aβ43
IC50 [6]: 63.3 ± 24.1 nM
Aβ40 (gel) [7]: little effect on Aβ40
Effect on Aβ species profile [10]: primarily acted on Aβ42 and Aβ38
Structure (SMILES): CC(=O)N1CCCC(c2ccc3[nH]c(C(=O)Nc4cc(F)cc(F)c4)cc3c2)C1 (stereo not drawn) [RO5254601]
Aβ40 (gel) [2]: little effect on Aβ40
Combined pathogenic species (Aβ42 + Aβ43) [4]: lower the ratio of combined pathogenic species
Secreted Aβ43 [4]: could not lower Aβ43
Long species (Aβ42 + Aβ43), overall fraction / sum ([8]; RO5254601 2.5 µM): not reduced; also recorded: barely reduced the sum of long Aβ42 and Aβ43 species
Notch1 cleavage / NICD release (Notch1 cleavage): did not impair Notch1 cleavage
Total Aβ levels [9]: without affecting total Aβ levels
Competition of RO6874585 crosslinking to presenilin (PS1 and PS2 NTF and CTF): competed with presenilin binding of RO6874585

IC50 [6, 14]: 229 ± 69.8 nM
Structure (SMILES): CC(C)N1CCC(Oc2ccc3[nH]c(C(=O)Nc4ccc(F)c(F)c4)cc3c2)C1 (stereo not drawn) [RO5218863]
Competition of RO6874585 crosslinking to presenilin (PS1 and PS2 NTF and CTF): competed with presenilin binding

Photoaffinity labeling of PS1 L166P versus WT (PS1 L166P): without apparent differences to the WT
Aβ42 lowering ([6]; H4/sw cells): lowering Aβ42
IC50 [6, 14]: 128 ± 44.7 nM
Structure (SMILES): O=C(CCCC[C@@H]1SC[C@@H]2NC(=O)N[C@@H]21)NCCOCCOCCOCCNC(=O)COc1ccc(C(=O)c2ccc(OCC(=O)N3CC[C@@H](Oc4ccc5[nH]c(C(=O)Nc6ccc(F)c(F)c6)cc5c4)C3)cc2)cc1 [RO6874585]
Notch1 cleavage / NICD release (Notch1 cleavage): without inhibiting Notch1 processing
Proteins labeled by photoaffinity probe (PS1 and PS2 NTF and CTF; UV crosslinking, streptavidin pull-down, immunoblot): PS1 and PS2 NTF and CTF as specific targets
